Laboratory results reported in patent publication US20240358672A1, “APPLICATION OF GENISTEIN AND ITS PHOSPHATE ESTER DERIVATIVE AND PHARMACEUTICAL COMPOSITION COMPRISING THE SAME” (National Taiwan University, priority 2023, published 2024).
Read-outs that look alike come from different tables or passages of the source.

What was measured:
[1] = system: human endothelial cells (HUVECs and HCAECs); assay: CellTiter-Glo cell viability, human endothelial cells; settings: increasing concentrations of Δ^9-THC, 48 hours
hiPSC-ECs [2] = assay: Wash-out experiments, inflammation-related gene expression in hiPSC-ECs; settings: 5 μM Δ^9-THC 48 hours, then fresh medium
C57BL/6J mice = assay type: in vivo
Protocol: FIG. 7A: Isometric tension recordings of isolated mice thoracic aortas were performed using a wire myograph. Vascular concentration-dependent relaxation was induced by acetylcholine (ACh) in pre-constricted mouse thoracic arteries. […] FIG. 7C: Luminex analysis of inflammatory cytokines in plasma of C57BL/6J mice treated with vehicle control, Δ^9-THC, or Δ^9-THC plus genistein. […] FIG. 7E: Effect of Δ^9-THC and genistein on NF-κB phosphorylation in mouse thoracic artery. Total cell lysates were prepared, and the expressions of phosphor-NF-κB were analyzed by ELISA (upper left). Superoxide dismutase (SOD) activity of serum from mouse (bottom left). The effect of Δ^9-THC and genistein on NF-κB phosphorylation in mouse thoracic artery tissues (n=5). Total cell lysates were prepared, and the expressions of NF-κB, phosphorylated NF-κB, and β-actin were analyzed by western blot analysis (right panel). FIG. 7F: The levels reduced glutathione (GSH), Oxidized glutathione (GSSG), Total glutathione (T-GSH) and GSH/GSSG in the serum samples of mice were detected. Plasma isolated from C57BL/6J mice (n=5) treated with vehicle control, Δ^9-THC, genistein, or their combination every day for 30 days was analyzed by the glutathione colorimetric assay kit (BioVision, K261).
Genistein also rescued the oxidative stress protective-related gene expression (FIG. 7D). In addition, NF-κB phosphorylation and SOD expression in mouse serum were also attenuated with genistein (FIG. 7E). Δ^9-THC administration decreased circulating levels of the antioxidant glutathione, which was ameliorated with genistein cotreatment (FIG. 7F).

Apoe^−/− mice = assay: Apoe−/− partial carotid artery ligation (PCAL) atherosclerosis model; assay type: in vivo, mouse; settings: HFD 10 days
Excerpt: FIG. 10A to 10C illustrate the effects of Δ^9-THC and genistein on the treatment of atherosclerosis in vivo using the Apoe^−/− mouse model according to Example 10. FIG. 10A: Gross images of carotid arteries after oil red O staining are shown (left panel). The scale bar represents 1 mm. A diagram of partial ligation of the carotid artery is shown (right panel). […] The right subclavian artery (RSA), right common carotid artery (RCA), and left subclavian artery (LSA) were unligated and remained patent. FIG. 10B: Carotid artery sections were counterstained with hematoxylin and eosin (H&E), and a representative slide was presented with scale bars at 100 μm (left panel). Oil red O staining of atherosclerotic plaques in cross-section of mouse carotid artery with scale bar at 100 μm. The atherosclerotic plaques were quantified (right panel). FIG. 10C: Carotid artery sections were immunostained with an anti-F4/80 antibody. […] Quantification of F4/80-positive area within carotid artery sections (top right). Carotid artery sections were immunostained with an anti-CD68 antibody. […] Quantification of CD68-positive area within carotid artery sections is shown (bottom right).
Further, an Apoe^−/− mouse model was also employed to investigate the effects of Δ^9-THC and cotreatment with genistein on atherosclerosis. Partial carotid artery ligation (PCAL) was performed in Apoe^−/− mice at 10-16 weeks. […] All mice were fed a HFD for 10 days. At the end of the treatment protocol, the Apoe^−/− mice were euthanized and subjected to histological analysis. […] Macrophage recruitment was tested using the macrophage-specific F4/80 antibody and CD68 antibody. […] Consistent with the Ldlr^−/− model findings, the Apoe^−/− PCAL mouse model found increased plaque size and increased macrophage recruitment with Δ^9-THC, and genistein cotreatment ameliorated these indices of atherosclerosis in ligated carotid arteries.

hiPSC-ECs [3] = assay: Monocyte (U937) adhesion assay on hiPSC-ECs; settings: 5 μM Δ^9-THC alone, 48 hours
hiPSC-ECs [4] = assay: Western blot / immunofluorescence of p38 and NF-κB (p65) in hiPSC-ECs; settings: 48 hours
[5] = system: engineered heart tissues (EHTs) composed of hiPSC-ECs and hiPSC-CMs; assay: Engineered heart tissues (EHTs) contractility
Protocol: FIG. 8A to 8C illustrate the effects of genistein and Δ^9-THC on cardiac contraction in vivo or in vitro experiments according to Example 9. […] After treatment exposure, the contractility, relaxation and peak force of EHT were measured using the Sony imaging platform. FIG. 8B: Same as the former, analysis of heart rate and contraction-relaxation (CR) interval (48 hours). […] Mice were anesthetized with 1%-2% isoflurane, and images were acquired in the parasternal long-axis (PLA) and parasternal short axis (PSA) on a Visualsonic Vevo 2100 platform. The ventricular (LV) dimensions were traced offline, and the ejection fraction (EF) was calculated using Simpson's biplane method of discs.
The inventor used engineered heart tissues (EHTs) composed of hiPSC-ECs and hiPSC-derived cardiomyocytes (hiPSC-CMs) to interrogate the effects of genistein and Δ^9-THC on contractility in vitro.

[6] = Plasma concentration by LC-MS analysis; settings: Δ^9-THC 1 mg/kg
CB1 receptor = CB1 receptor (Homo sapiens, UniProt P21554); assay: GTPase-Glo assay (in vitro GTPase assay); assay type: biochemical
Chain of CB1 receptor (P21554 whole entry): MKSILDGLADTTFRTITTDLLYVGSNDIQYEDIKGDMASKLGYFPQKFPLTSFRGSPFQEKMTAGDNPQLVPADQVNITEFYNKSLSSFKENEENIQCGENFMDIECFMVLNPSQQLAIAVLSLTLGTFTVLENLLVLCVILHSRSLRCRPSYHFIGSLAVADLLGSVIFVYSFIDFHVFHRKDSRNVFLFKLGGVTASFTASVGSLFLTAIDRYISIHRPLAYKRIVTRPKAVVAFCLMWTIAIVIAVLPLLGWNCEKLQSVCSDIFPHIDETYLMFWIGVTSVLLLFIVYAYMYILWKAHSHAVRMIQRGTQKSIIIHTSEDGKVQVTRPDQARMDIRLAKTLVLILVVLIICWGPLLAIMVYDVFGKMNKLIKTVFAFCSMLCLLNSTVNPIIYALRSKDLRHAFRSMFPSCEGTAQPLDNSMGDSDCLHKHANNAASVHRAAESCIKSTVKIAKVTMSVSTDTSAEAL

various organs = settings: in vivo
[7] = system: WT hiPSC-ECs and CB1 CRISPRi hiPSC-ECs; assay: TNF-α challenge of WT and CB1 CRISPRi hiPSC-ECs; settings: 10 ng/ml TNF-α with 10 μM genistein
[8] = Δ^9-THC 1 mg/kg plus genistein 50 mg/kg
[9] = 10 μM genistein with 5 μM Δ^9-THC

For `CCCCCc1cc(O)c2c(c1)OC(C)(C)[C@@H]1CCC(C)=C[C@@H]21` [Δ^9-THC, Δ^9-tetrahydrocannabinol], the “cytotoxicity (cell viability)” value [1] was “induced cytotoxicity”, the “time the induced expression of proinflammatory cytokines and chemokines was sustained (recovery time)” value (hiPSC-ECs [2]) was 8 to 10 days and the “plasma IL-6, IL-3 and IL-10 (Luminex)” value (C57BL/6J mice; Δ^9-THC alone) was “elevated”. The “circulating levels of the antioxidant glutathione” value (C57BL/6J mice; Δ^9-THC alone, every day for 30 days) was “decreased”, the “CD68-positive area in ligated carotid artery” value (Apoe^−/− mice; Δ^9-THC 1 mg/kg) was “significantly increased” and the “F4/80-positive area in ligated carotid artery” value (Apoe^−/− mice; Δ^9-THC 1 mg/kg) was “significantly increased”. The “plaque area in ligated carotid artery (oil red O)” value (Apoe^−/− mice; Δ^9-THC 1 mg/kg) was “increased”, the “monocyte adhesion to hiPSC-ECs” value (hiPSC-ECs [3]) was “increased adhesion” and the “p65 (NF-κB) phosphorylation” value (hiPSC-ECs [4]; 5 μM Δ^9-THC alone) was “caused p65 phosphorylation”. For the same molecule, the “phosphorylation of p38” value (hiPSC-ECs [4]; 5 μM Δ^9-THC alone) was “increased phosphorylation of p38”, the “nuclear translocation of NF-κB (p65)” value (hiPSC-ECs [4]; 5 μM Δ^9-THC) was “induced” and the “beat rate of EHTs” value ([5]; 5 μM Δ^9-THC, 48 hours) was “decreased beat rate”. The “contraction-relaxation interval of EHTs” value ([5]; 5 μM Δ^9-THC, 48 hours) was “increased the contraction-relaxation interval” and the plasma concentration [6] was roughly 0.1 µg/mL.

With `O=c1c(-c2ccc(O)cc2)coc2cc(O)cc(O)c12` [genistein] the “function at CB1 in in vitro GTPase assay” value (CB1 receptor) was “neutral antagonist”, the “GTP turnover compared with Apo” value (CB1 receptor; GTPase-Glo assay) was “same GTP turnover as Apo” and the “toxicity to various organs” value (various organs) was “did not exhibit any toxicity to various organs”. The “Δ^9-THC-induced mRNA expressions of inflammation-related genes in mouse thoracic artery tissues” value (C57BL/6J mice; Δ^9-THC 1 mg/kg plus genistein 50 mg/kg or rimonabant 3 mg/kg) was “ameliorated”, the “NF-κB phosphorylation in mouse thoracic artery” value (C57BL/6J mice; Δ^9-THC plus genistein) was “attenuated” and the “SOD expression in mouse serum” value (C57BL/6J mice; Δ^9-THC plus genistein) was “attenuated”. The “oxidative stress protective-related gene expression in thoracic artery tissues” value (C57BL/6J mice; Δ^9-THC plus genistein) was “rescued”, the “plasma IL-6, IL-3 and IL-10 (Luminex)” value (C57BL/6J mice; Δ^9-THC plus genistein cotreatment) was “significantly reduced” and the “Δ^9-THC-decreased circulating glutathione” value (C57BL/6J mice; Δ^9-THC plus genistein cotreatment, every day for 30 days) was “ameliorated”. For the same molecule, the “CD68-positive area in ligated carotid artery” value (Apoe^−/− mice; [8]) was “reduced”, the “F4/80-positive area in ligated carotid artery” value (Apoe^−/− mice; [8]) was “decreased” and the “plaque size in ligated carotid artery (oil red O)” value (Apoe^−/− mice; [8]) was “ameliorated the plaque size”. The “Δ^9-THC-induced NF-κB phosphorylation” value (hiPSC-ECs [4]; [9]) was “attenuated NF-κB phosphorylation”, the “Δ^9-THC-induced p38 phosphorylation” value (hiPSC-ECs [4]; [9]) was “decreased” and the “expression of ILIA” value ([7]; CB1 CRISPRi hiPSC-ECs) was “increased significantly”. The “TNF-α-increased expression of CXCR8” value ([7]; WT hiPSC-ECs) was “attenuated”, the “TNF-α-increased expression of IL6” value ([7]; WT hiPSC-ECs) was “attenuated” and the “expression of ILIA” value ([7]; WT hiPSC-ECs) was “decreased”. For the same molecule, the “TNF-α-increased expression of SOD1” value ([7]; WT or CB1 CRISPRi hiPSC-ECs) was “not attenuated”, the “contraction, relaxation, and peak force of EHTs” value [5] was “no significant effect” and the “Δ^9-THC effects on beat rate and contraction-relaxation interval” value [5] was “did not attenuate these effects”.
